Experimental data reported in ChEMBL document CHEMBL5291721, “A preclinical secondary pharmacology resource illuminates target-adverse drug reaction associations of marketed drugs” (Nat Commun, 2023).

Key:
Progesterone receptor = target: T1, Progesterone receptor (Homo sapiens, UniProt P06401)
T1 sequence (P06401 whole entry): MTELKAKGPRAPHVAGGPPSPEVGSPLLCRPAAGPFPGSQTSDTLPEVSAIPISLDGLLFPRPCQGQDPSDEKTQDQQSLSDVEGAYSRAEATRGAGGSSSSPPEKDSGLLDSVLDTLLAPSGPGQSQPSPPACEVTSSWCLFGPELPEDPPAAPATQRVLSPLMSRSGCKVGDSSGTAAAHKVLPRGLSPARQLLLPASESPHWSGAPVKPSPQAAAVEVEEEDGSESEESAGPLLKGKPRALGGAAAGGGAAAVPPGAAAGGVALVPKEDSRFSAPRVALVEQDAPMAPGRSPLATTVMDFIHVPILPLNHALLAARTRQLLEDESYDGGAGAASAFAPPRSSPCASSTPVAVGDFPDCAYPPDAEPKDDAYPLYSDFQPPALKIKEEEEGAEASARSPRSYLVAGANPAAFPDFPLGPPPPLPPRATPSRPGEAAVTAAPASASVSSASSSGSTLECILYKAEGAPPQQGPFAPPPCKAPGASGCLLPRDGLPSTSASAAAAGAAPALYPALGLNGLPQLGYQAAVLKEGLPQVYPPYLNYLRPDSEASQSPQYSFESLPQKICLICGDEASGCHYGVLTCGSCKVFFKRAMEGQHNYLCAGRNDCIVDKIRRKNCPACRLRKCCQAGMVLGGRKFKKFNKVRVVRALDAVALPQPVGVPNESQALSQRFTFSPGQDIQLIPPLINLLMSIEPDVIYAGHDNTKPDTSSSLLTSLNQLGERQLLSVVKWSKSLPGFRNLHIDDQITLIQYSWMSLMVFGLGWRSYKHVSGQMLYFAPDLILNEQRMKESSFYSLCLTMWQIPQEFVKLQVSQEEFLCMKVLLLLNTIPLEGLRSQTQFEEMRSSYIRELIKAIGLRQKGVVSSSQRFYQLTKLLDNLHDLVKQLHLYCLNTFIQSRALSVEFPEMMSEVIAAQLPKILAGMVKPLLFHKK

Histamine H3 receptor = Histamine H3 receptor (Homo sapiens, UniProt Q9Y5N1)
[1] = target: 5-hydroxytryptamine receptor 2B (Homo sapiens, UniProt P41595); assay type: functional, cell-based
[2] = target: T2, 5-hydroxytryptamine receptor 1A (Homo sapiens, UniProt P08908)
T2 sequence (P08908 whole entry): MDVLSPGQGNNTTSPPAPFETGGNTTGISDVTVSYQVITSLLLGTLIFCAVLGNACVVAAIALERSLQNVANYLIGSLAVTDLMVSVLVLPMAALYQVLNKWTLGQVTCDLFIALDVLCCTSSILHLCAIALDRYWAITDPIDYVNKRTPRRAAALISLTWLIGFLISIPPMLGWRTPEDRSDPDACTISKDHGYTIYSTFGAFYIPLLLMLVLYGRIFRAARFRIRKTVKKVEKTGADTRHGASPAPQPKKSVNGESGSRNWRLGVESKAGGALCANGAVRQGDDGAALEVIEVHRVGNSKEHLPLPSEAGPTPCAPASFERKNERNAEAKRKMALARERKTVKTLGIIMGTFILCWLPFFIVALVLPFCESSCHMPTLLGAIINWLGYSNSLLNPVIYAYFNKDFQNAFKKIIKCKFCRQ

[3] = target: cGMP-inhibited 3',5'-cyclic phosphodiesterase 3A (Homo sapiens, UniProt Q14432); assay type: functional
Thromboxane A2 receptor [4] = target: T3, Thromboxane A2 receptor (Homo sapiens, UniProt P21731); assay type: functional, cell-based
T3 sequence (P21731 whole entry): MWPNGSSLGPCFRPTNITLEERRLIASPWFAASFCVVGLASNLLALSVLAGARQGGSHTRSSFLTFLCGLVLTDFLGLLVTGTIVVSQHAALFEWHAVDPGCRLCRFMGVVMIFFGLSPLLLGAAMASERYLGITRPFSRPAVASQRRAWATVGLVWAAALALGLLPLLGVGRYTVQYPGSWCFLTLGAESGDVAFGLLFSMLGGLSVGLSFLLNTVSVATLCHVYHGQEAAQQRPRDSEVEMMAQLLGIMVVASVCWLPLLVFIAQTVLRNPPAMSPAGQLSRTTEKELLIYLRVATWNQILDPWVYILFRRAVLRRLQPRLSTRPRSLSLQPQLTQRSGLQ

[5] = target: Prostaglandin G/H synthase 1 (Homo sapiens, UniProt P23219); assay type: functional
[6] = target: Voltage-gated inwardly rectifying potassium channel KCNH2 (Homo sapiens, UniProt Q12809); assay type: functional
[7] = target: T4, Alpha-2A adrenergic receptor (Homo sapiens, UniProt P08913)
T4 sequence (P08913 whole entry): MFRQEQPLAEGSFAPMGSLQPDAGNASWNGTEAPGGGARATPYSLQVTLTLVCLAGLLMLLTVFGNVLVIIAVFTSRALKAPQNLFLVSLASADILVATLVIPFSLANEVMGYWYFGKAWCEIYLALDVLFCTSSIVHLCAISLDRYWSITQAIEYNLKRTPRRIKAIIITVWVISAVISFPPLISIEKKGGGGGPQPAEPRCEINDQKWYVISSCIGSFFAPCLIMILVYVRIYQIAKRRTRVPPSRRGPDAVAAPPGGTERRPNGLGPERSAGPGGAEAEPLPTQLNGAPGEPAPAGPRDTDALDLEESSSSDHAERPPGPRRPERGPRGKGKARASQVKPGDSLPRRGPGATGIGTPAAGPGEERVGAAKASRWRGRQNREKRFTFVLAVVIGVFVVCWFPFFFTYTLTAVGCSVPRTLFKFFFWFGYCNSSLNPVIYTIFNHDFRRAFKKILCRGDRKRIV

D(3) dopamine receptor = D(3) dopamine receptor (Homo sapiens, UniProt P35462)
Thromboxane A2 receptor [8] = target: T3, Thromboxane A2 receptor; assay type: functional, cell-based; remark: listed apart in the source
[9] = target: Sodium-dependent dopamine transporter (Homo sapiens, UniProt Q01959)
Also: assay procedure not described here.

Sequence of Sodium-dependent dopamine transporter (Q01959 whole entry): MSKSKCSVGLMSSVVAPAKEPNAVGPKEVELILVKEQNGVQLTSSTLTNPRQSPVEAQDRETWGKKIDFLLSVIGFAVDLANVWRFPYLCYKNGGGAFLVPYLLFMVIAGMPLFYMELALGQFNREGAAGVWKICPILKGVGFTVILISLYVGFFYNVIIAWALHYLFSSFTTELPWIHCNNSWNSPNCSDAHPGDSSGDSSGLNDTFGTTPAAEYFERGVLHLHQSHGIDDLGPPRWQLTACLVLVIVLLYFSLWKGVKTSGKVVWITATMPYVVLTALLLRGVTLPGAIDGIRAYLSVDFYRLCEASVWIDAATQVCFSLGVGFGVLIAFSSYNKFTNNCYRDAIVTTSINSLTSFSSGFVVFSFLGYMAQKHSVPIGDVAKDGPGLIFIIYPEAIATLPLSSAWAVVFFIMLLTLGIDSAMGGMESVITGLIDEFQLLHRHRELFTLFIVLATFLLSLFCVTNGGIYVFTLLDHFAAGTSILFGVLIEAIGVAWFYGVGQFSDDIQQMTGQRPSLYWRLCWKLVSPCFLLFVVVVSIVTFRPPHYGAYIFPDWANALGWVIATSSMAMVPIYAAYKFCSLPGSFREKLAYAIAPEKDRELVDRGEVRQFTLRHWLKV
Sequence of Voltage-gated inwardly rectifying potassium channel KCNH2 (Q12809 whole entry): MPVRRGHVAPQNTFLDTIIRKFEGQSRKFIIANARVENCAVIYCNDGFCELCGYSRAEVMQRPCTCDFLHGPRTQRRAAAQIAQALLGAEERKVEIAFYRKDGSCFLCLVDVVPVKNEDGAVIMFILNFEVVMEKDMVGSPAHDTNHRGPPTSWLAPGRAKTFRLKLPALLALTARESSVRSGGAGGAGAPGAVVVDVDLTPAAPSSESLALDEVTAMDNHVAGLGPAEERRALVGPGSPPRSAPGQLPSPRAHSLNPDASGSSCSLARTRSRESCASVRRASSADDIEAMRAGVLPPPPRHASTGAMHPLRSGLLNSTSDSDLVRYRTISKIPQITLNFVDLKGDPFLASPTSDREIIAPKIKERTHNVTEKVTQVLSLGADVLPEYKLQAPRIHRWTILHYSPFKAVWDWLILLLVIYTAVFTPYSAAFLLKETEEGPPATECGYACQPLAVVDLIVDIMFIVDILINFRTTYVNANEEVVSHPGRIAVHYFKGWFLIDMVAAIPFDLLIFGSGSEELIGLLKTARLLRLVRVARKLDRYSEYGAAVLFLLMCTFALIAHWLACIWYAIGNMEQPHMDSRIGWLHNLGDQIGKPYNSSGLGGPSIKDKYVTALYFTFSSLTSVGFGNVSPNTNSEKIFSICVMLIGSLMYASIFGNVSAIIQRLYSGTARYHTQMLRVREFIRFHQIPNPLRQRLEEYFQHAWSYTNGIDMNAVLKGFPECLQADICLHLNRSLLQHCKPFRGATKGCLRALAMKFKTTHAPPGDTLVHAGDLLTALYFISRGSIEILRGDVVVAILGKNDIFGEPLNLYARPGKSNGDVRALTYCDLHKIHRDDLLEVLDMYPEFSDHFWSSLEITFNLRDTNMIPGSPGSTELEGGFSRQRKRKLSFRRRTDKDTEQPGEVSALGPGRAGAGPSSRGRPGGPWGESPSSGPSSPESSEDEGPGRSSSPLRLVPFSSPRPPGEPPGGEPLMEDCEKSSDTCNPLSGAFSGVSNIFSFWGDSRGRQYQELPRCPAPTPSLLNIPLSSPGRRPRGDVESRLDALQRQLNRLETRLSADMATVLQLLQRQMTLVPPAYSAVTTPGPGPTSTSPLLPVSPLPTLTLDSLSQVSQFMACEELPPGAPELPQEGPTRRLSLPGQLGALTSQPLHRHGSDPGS
Sequence of cGMP-inhibited 3',5'-cyclic phosphodiesterase 3A (Q14432 whole entry): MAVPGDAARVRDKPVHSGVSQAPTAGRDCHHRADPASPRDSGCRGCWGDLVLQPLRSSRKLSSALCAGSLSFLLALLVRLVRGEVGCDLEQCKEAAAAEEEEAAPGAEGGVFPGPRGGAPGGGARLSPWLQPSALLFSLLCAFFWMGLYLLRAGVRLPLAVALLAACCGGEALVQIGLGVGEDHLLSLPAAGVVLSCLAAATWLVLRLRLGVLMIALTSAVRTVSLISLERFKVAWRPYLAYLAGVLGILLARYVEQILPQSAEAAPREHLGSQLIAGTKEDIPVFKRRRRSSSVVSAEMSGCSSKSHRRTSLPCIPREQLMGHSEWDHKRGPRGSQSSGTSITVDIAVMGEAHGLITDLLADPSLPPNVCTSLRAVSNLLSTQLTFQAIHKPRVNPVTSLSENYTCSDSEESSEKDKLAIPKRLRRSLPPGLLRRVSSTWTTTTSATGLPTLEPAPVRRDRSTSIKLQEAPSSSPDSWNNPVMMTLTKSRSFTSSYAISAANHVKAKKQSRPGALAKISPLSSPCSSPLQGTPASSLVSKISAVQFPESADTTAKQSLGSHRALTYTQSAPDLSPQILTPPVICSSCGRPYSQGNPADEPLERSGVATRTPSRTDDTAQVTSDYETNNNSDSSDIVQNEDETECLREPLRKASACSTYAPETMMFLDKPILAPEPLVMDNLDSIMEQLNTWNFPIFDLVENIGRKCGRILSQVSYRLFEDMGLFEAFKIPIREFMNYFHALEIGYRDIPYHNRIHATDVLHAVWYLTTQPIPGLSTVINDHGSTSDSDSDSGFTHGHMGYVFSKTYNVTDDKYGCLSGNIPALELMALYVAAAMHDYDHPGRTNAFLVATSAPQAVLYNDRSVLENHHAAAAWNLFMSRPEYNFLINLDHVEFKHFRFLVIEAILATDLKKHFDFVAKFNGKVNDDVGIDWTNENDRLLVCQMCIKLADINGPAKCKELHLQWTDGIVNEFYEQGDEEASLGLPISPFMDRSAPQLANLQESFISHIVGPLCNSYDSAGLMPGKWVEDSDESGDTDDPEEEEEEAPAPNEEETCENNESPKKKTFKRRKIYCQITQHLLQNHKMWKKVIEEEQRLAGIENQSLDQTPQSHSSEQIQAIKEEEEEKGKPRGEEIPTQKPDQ
Sequence of Histamine H3 receptor (Q9Y5N1 whole entry): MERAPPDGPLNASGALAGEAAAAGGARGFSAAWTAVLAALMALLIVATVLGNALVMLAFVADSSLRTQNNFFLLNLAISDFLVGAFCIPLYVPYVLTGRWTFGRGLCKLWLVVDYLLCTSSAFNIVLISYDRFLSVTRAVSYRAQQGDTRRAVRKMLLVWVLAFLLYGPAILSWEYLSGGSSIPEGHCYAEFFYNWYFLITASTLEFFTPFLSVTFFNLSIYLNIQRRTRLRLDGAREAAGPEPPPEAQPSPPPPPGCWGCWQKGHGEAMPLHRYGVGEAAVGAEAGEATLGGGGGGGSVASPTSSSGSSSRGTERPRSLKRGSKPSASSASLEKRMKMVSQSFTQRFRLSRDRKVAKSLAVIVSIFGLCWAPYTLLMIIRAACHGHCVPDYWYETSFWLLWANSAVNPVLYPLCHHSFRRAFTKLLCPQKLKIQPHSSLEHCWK
Sequence of D(3) dopamine receptor (P35462 whole entry): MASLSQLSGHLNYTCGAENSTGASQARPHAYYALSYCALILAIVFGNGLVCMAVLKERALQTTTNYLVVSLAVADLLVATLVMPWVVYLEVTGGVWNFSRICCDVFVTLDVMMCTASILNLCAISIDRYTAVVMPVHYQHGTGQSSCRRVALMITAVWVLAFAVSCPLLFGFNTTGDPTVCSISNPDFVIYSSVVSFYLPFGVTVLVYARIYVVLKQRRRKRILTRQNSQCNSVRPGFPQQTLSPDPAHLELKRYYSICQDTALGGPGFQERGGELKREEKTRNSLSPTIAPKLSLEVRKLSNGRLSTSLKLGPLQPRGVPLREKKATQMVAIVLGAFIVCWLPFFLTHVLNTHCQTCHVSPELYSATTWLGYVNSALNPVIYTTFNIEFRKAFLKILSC
Sequence of 5-hydroxytryptamine receptor 2B (P41595 whole entry): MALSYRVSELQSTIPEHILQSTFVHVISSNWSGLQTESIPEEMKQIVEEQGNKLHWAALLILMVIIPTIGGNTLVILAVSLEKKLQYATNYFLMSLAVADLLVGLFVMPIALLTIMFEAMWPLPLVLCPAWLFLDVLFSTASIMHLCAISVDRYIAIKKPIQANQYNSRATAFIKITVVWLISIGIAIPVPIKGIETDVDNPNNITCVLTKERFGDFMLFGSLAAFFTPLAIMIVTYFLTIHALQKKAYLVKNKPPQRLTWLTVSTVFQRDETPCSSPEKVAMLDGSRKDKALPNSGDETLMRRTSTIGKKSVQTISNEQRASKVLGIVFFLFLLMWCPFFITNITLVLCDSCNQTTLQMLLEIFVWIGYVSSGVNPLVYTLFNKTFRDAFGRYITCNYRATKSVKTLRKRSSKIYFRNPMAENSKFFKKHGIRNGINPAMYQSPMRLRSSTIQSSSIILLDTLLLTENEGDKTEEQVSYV
Sequence of Prostaglandin G/H synthase 1 (P23219 whole entry): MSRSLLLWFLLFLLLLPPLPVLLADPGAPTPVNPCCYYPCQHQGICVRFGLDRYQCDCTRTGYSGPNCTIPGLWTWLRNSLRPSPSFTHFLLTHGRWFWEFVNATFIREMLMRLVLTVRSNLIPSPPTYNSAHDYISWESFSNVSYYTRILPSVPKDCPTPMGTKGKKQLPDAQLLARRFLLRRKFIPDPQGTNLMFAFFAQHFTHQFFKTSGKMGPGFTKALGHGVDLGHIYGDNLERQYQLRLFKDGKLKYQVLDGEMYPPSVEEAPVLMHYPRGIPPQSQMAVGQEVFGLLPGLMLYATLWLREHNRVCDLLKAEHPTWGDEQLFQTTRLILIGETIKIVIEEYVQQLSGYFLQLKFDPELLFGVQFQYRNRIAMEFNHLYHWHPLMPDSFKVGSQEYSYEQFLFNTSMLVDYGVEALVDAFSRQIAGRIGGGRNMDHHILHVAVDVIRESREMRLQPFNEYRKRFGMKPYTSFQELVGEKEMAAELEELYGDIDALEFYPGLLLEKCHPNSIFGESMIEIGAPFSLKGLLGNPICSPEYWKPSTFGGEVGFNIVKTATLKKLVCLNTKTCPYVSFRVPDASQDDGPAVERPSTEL

| SMILES | AC50 (Progesterone receptor) | AC50 (Histamine H3 receptor) | AC50 [1] | AC50 [2] | AC50 [3] | AC50 (Thromboxane A2 receptor [4]) | AC50 [5] | AC50 [6] | AC50 [7] | AC50 (D(3) dopamine receptor) | AC50 (Thromboxane A2 receptor [8]) | AC50 [9] |
| --- | --- | --- | --- | --- | --- | --- | --- | --- | --- | --- | --- | --- |
| C[C@]12C=CC(=O)C=C1CC[C@H]1[C@@H]3C[C@@H](O)[C@](O)(C(=O)CO)[C@@]3(C)C[C@H](O)[C@@]12F [TRIAMCINOLONE] | 19.7 µM | > 30 µM | > 30 µM | > 30 µM | > 30 µM | > 30 µM | > 30 µM | > 30 µM | > 30 µM | > 30 µM | > 30 µM | > 30 µM |
| C[N+](C)(C)CCOP(=O)(O)OP(=O)([O-])OC[C@H]1O[C@@H](n2ccc(N)nc2=O)[C@H](O)[C@@H]1O [CITICOLINE] | > 30 µM | > 30 µM | > 30 µM | > 30 µM | > 30 µM | > 30 µM | > 30 µM | > 30 µM | > 30 µM | > 30 µM | > 30 µM | > 30 µM |
| C=CC(=O)Nc1cccc(Oc2nc(Nc3ccc(N4CCN(C)CC4)cc3)nc3ccsc23)c1 [OLMUTINIB] | > 30 µM | 0.94 µM | > 30 µM | 2.44 µM | > 30 µM | > 30 µM | > 30 µM | 0.54 µM | 0.881 µM | 0.453 µM | 4.35 µM | 0.0559 µM |
| COc1c2occc2c(OC)c2c(=O)cc(C)oc12 [KHELLIN] | > 30 µM | > 30 µM | > 30 µM | > 30 µM | > 30 µM | > 30 µM | > 30 µM | > 30 µM | > 30 µM | > 30 µM | > 30 µM | > 30 µM |
| C=C(C)CNc1ccc(C(C)C(=O)O)cc1 (stereo not given) [ALMINOPROFEN] | > 30 µM | > 30 µM | > 30 µM | > 30 µM | > 30 µM | > 30 µM | > 30 µM | > 30 µM | > 30 µM | > 30 µM | > 30 µM | > 30 µM |
| COc1ccccc1OC1(C)OC(=O)c2ccccc2O1 (stereo not given) [GUAIMESAL] | > 30 µM | > 30 µM | > 30 µM | > 30 µM | > 30 µM | > 30 µM | > 30 µM | > 30 µM | > 30 µM | > 30 µM | > 30 µM | > 30 µM |
| O=C(O)P(=O)(O)O [FOSCARNET] | > 30 µM | > 30 µM | > 30 µM | > 30 µM | > 30 µM | > 30 µM | > 30 µM | > 30 µM | > 30 µM | > 30 µM | > 30 µM | > 30 µM |
| CC(C(=O)O)c1cccc(Oc2ccccc2)c1 (stereo not given) [FENOPROFEN] | > 30 µM | > 30 µM | > 30 µM | > 30 µM | > 30 µM | > 30 µM | 13.5 µM | > 30 µM | > 30 µM | > 30 µM | > 30 µM | > 30 µM |
| CC[C@H]1OC(=O)[C@H](C)[C@@H](O[C@H]2C[C@@](C)(OC)[C@@H](O)[C@H](C)O2)[C@H](C)[C@@H](O[C@@H]2O[C@H](C)C[C@H](N(C)C)[C@H]2O)[C@](C)(O)C[C@@H](C)[C@@H]2N[C@@H](COCCOC)O[C@H]([C@H]2C)[C@]1(C)O [DIRITHROMYCIN] | > 30 µM | > 30 µM | > 30 µM | > 30 µM | > 30 µM | > 30 µM | > 30 µM | > 30 µM | > 30 µM | > 30 µM | > 30 µM | > 30 µM |
| C[C@H]1CN(C[C@H](Cc2ccccc2)C(=O)NCC(=O)O)CC[C@@]1(C)c1cccc(O)c1 [ALVIMOPAN] | > 30 µM | > 30 µM | > 30 µM | > 30 µM | > 30 µM | > 30 µM | > 3 µM | > 30 µM | > 30 µM | > 30 µM | > 30 µM | > 30 µM |
| O=C(O)Cc1ccccc1Oc1ccc(Cl)cc1Cl [FENCLOFENAC] | > 30 µM | > 30 µM | > 30 µM | > 30 µM | > 30 µM | > 30 µM | > 30 µM | > 30 µM | > 30 µM | > 30 µM | > 30 µM | > 30 µM |
| CCNC(=O)/C=C(C)/C=C/C=C(C)/C=C/c1c(C)cc(OC)c(C)c1C [MOTRETINIDE] | 0.932 µM | > 30 µM | > 30 µM | > 30 µM | > 30 µM | > 30 µM | 12 µM | 5.7 µM | > 30 µM | > 30 µM | > 30 µM | > 10 µM |
| Cc1ccccc1C(=O)Nc1ccc(C(=O)N2CCCC(O)c3cc(Cl)ccc32)c(C)c1 (stereo not given) [TOLVAPTAN] | > 30 µM | > 30 µM | > 30 µM | 11 µM | > 30 µM | > 30 µM | > 30 µM | > 30 µM | > 30 µM | > 30 µM | 7.42 µM | > 30 µM |
| CCCc1nc2c(C)cc(-c3nc4ccccc4n3C)cc2n1Cc1ccc(-c2ccccc2C(=O)O)cc1 | > 30 µM | > 30 µM | > 30 µM | > 30 µM | 29.9 µM | 14.5 µM | > 30 µM | > 30 µM | > 30 µM | > 30 µM | > 1 µM | > 30 µM |
| CCCCC1C(=O)N(c2ccccc2)N(c2ccc(O)cc2)C1=O (stereo not given) [OXYPHENBUTAZONE ANHYDROUS] | > 30 µM | > 30 µM | > 30 µM | > 30 µM | > 30 µM | > 30 µM | 21.8 µM | > 30 µM | > 30 µM | > 30 µM | > 30 µM | > 30 µM |
